The test system of one assay is benzodiazepine receptor. The assay is described as follows: inhibition of 3H-flunitrazepam binding in live brain, in vivo (mice). Conditions: normally i.p., 3H-flunitrazepam i.v. after 15 min.
The nature of assay [1]: 4-plate assay, anxiolytic activity (Boissier et al.). It is filed as in vivo. Conditions: Mus musculus, ip; minimum lowest dose which increases locomotor activity of punished mice; i.p.; read-out: Anxiolytic Activity MED. The procedure:
The compounds of this invention display especially anxiolytic and anticonvulsive activities. In order to study the anxiolytic effect, the compounds were tested in the 4-plate assay according to the method by Boissier et al., Eur. J. Pharmacol. 4:145-150 ([…]). The table indicates the minimum lowest dose (MED) which increases the locomotor activity of the punished mice after i.p. treatment.

For a further assay, the target named is benzodiazepine receptors. The assay is described as follows: displacement of 3H-flunitrazepam binding, in vitro (rat brain membranes). As to conditions: 3H-flunitrazepam 1.0 nM, 0° C. Background: Displacement assays read how much labelled ligand stays bound in the presence of the test substance.

Regarding `COCc1c(C(=O)OC(C)C)ncc2[nH]c3ccc(Oc4ccc(Br)cn4)cc3c12`, the “Inhibition of 3H-Flunitrazepam Binding ED50 in vivo” value in the assay on benzodiazepine receptor came out at 2.7 mg/kg. Also, the minimal effective dose in assay [1] is 3.13 mg/kg. The “Inhibition of 3H-Flunitrazepam Binding IC50 in vitro” value at benzodiazepine receptors turned out to be 0.75 ng/mL.

In the case of `CCc1noc(-c2cc3c(cn2)[nH]c2cccc(Oc4ncccn4)c23)n1`, the “Inhibition of 3H-Flunitrazepam Binding ED50 in vivo” value in the assay with benzodiazepine receptor was 2.8 mg/kg. In assay [1], the minimal effective dose was 3.13 mg/kg. Also, the “Inhibition of 3H-Flunitrazepam Binding IC50 in vitro” value on benzodiazepine receptors was 0.28 ng/mL.

The values are drawn from US4877792A, “Heteroaryloxy-beta-carboline derivatives, their preparation and their use as medicinal agents” (Schering Aktiengesellschaft, priority 1986, dated 1989).
